Results as given in patent US10011584B2, “Polymorphic form of [5-fluoro-3-({2-[(4-fluorobenzene) sulfonyl]pyridin-3-yl}methyl)-2-methylindol-1-yl]-acetic acid” (Atopix Therapeutics Limited, priority 2014, dated 2018).

Tests used:
Format in all cases: physicochemical
[1] = Dynamic vapour sorption (DVS) with FT-Raman check pre- and post-measurement
Experimental: (§1) In the Examples the following conditions were used for measurements. • 1H-NMR: 1H-NMR spectra were recorded using a Bruker DPX300 spectrometer with a proton frequency of 300.13 MHz, a 30° excitation pulse, and a recycle delay of 1 s. 16 scans were accumulated. d6-DMSO was used as the solvent. • DSC: Differential scanning calorimetry was carried out with a Perkin Elmer DSC-7 instrument (closed gold sample pan under N2 atmosphere). • DVS (SPS): Sorption Measurement System SPS11-100n. The sample was placed in an Al crucible, and the sample was allowed to equilibrate at a given r.h. before starting a predefined humidity program. The used measurement program can be recognized in the corresponding figures (blue line). • FT-Raman spectroscopy: FT-Raman spectra were recorded on a Bruker RFS 100 FT-Raman system with a near infrared Nd:YAG laser operating at 1064 nm and a liquid nitrogen-cooled germanium detector. For each sample, a minimum of 64 scans with a resolution of 2 cm^−1 were accumulated. 300 mW laser power was used. The FT-Raman data are shown in the region between 3500 to 100 cm^−1. […] Sample preparation: The samples were generally measured without any special treatment other than the application of slight pressure to get a flat surface. […]
In order to examine the behaviour of Batch 1 in the presence of variable water vapour pressure, the sample was analyzed by DVS. […]

[2] = Thermodynamic stability of polymorphic forms (suspension equilibration of a mixture of forms, PXRD); conditions: for temperature range of thermodynamic stability (in words): enantiotropic polymorphs
Experimental: Polymorphic Form 2 has a melting signal at 196° C. as measured by differential scanning calorimetry and is stable at temperatures up to about 60-65° C.
A mixture with similar ratios of the products of Example 4, Experiment 15 (Form 1), Example 4, Experiment 9 (form 2+x) and Example 4, Experiment 6 (Form 2+Form 3) were suspended in acetonitrile and shaken for 13 days at 22° C. to give a product designated Product P24). The solid was recovered by filter centrifugation and characterized by PXRD. […] These signals could be assigned to (i) another crystalline form or (ii) the signals could not be detected for Product P24 because the diffractogram has a lower intensity.
Thus, after 13 days at 22° C. the PXRD corresponds to that of Form 2.

TG-FTIR thermogravimetry = conditions: 25° C. to 250° C., heating rate 10° C./min
Experimental: as §1
Batch 3 was analyzed by TG-FTIR in a temperature range of 25° C. to 250° C. and a heating rate of 10° C./min. […]

SMILES: Cc1c(Cc2cccnc2S(=O)(=O)c2ccc(F)cc2)c2cc(F)ccc2n1CC(=O)O [Batch 1, [5-fluoro-3-({2-[(4-fluorobenzene)sulfonyl]pyridin-3-yl}methyl)-2-methylindol-1-yl]-acetic acid]
- phase transition of sample recovered from DVS ([1]; FT-Raman pre- and post DVS): no phase transition
- mass change at the end of the DVS measurement versus starting material ([1]; end humidity 50% r.h., scanning rate 5% r.h. per hour, cycle 50-0-95-50% r.h.): 0.6%

SMILES: Cc1c(Cc2cccnc2S(=O)(=O)c2ccc(F)cc2)c2cc(F)ccc2n1CC(=O)O [Form 3, [5-fluoro-3-({2-[(4-fluorobenzene)sulfonyl]pyridin-3-yl}methyl)-2-methylindol-1-yl]-acetic acid]
- temperature range of thermodynamic stability (in words) [2]: stable at temperatures between the stability ranges of Forms 2 and 1

SMILES: Cc1c(Cc2cccnc2S(=O)(=O)c2ccc(F)cc2)c2cc(F)ccc2n1CC(=O)O [Form 2, [5-fluoro-3-({2-[(4-fluorobenzene)sulfonyl]pyridin-3-yl}methyl)-2-methylindol-1-yl]-acetic acid]
- most stable form after suspension equilibration ([2]; mixture of Forms 1, 2 and 3 in acetonitrile, shaken 13 days at 22° C., PXRD): most stable form at room temperature
- temperature up to which the form is thermodynamically stable ([2]; upper limit of stability range of the polymorphic form): 60-65 °C

SMILES: Cc1c(Cc2cccnc2S(=O)(=O)c2ccc(F)cc2)c2cc(F)ccc2n1CC(=O)O [Batch 3, [5-fluoro-3-({2-[(4-fluorobenzene)sulfonyl]pyridin-3-yl}methyl)-2-methylindol-1-yl]-acetic acid]
- decomposition temperature (TG-FTIR thermogravimetry): > 160 °C

SMILES: Cc1c(Cc2cccnc2S(=O)(=O)c2ccc(F)cc2)c2cc(F)ccc2n1CC(=O)O [Form 1, [5-fluoro-3-({2-[(4-fluorobenzene)sulfonyl]pyridin-3-yl}methyl)-2-methylindol-1-yl]-acetic acid]
- temperature range of thermodynamic stability (in words) [2]: thermodynamically stable at high temperatures
